# Legend:
# RAW 264.7 cells = system: RAW 264.7 cells; parameters: method as in PMID 30987203; settings: up to 100 µM, 24 h, MTT; cited from earlier work
# [1] = target: T1, 26S proteasome isolated from AGS cells (Homo sapiens, UniProt P28074); experiment: 26S proteasome inhibition; format: biochemical
# T1 construct: purified 26S proteasome isolated from AGS cells; endogenous in cells; host or cells: AGS cells
# T1 sequence (P28074 60-263): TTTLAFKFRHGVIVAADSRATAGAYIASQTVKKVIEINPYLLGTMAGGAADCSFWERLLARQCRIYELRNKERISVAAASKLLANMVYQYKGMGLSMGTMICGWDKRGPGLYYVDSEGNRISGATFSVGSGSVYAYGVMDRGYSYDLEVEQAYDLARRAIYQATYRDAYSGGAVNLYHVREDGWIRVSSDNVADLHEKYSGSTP
# Procedure: This assay was carried out in the same way as described for 20S proteasome (vide supra), except using purified 26S proteasome isolated from AGS cells. To extract 26S proteasome from cells, they were centrifuged at 1300 rpm for 3 min at 37 °C and the supernatant was rejected. The pellet was then resuspended in 5 mL of HBSS. After this step, the cells were centrifuged again under the conditions referred to above and the supernatant was rejected. Then, 1 mL of cell lysis buffer was added, before being placed in ice (4 °C) for 30 min. Subsequently, the mixture was centrifuged at 14,000 g during 30 min at 4 °C. The pellet was rejected, and the supernatant was kept in an Eppendorf tube. The quantity of protein isolated was determined by Bradford Assay.
# A stock solution of bovine serum albumin (BSA) (1.0 mg/mL) was prepared in H2O. From the stock solution, six concentrations were prepared: 5%, 4%, 3%, 2%, 1% and 0% stock solution in H2O. An aliquot of each sample (40 µL) was added to a solution of the Bradford reagent (200 µL). After 5 min, the absorbance was measured at 595 nm and the calibration curve was plotted (correlation > 0.99). […] After 5 min, the absorbance was measured at 595 nm and the result was compared with the correlation curve in order to calculate the concentration of protein.
# [2] = system: LPS-induced •NO production in RAW 264.7 cells; settings: cited from earlier work
# COX-1 = target: T2, COX-1 (Ovis aries, UniProt P05979); parameters: method as in PMID 30987203; settings: 25 µM; cited from earlier work
# T2 construct: purchased Cayman Chemical
# T2 sequence (P05979 25-600): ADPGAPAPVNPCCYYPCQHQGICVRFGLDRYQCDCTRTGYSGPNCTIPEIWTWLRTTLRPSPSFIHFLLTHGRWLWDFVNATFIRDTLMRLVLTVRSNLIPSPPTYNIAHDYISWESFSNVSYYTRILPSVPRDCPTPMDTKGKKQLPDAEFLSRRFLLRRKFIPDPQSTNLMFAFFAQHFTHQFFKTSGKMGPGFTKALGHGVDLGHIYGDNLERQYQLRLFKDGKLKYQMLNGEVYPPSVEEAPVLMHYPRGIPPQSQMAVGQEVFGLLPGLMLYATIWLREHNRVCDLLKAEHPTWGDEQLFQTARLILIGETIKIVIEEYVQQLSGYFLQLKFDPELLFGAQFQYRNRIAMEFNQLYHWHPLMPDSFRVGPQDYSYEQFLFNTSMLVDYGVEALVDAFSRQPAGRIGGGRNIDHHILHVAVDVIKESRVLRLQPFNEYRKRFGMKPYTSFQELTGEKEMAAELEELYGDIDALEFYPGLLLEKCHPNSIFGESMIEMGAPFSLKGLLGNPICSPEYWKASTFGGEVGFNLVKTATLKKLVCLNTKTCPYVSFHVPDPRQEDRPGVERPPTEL
# AGS cells = experiment: MTT cell viability, AGS cells; format: cell-based; settings: 100 µM, 24 h
# Procedure: Adenocarcinoma gastric cells (AGS; Sigma-Aldrich, St. Louis, MO, USA), murine-macrophage cell line (RAW 264.7; American Type Culture Collection, LGC Standards S.L.U., Barcelona, Spain), and human foetal lung fibroblasts (MRC-5; ECACC, Porton Down Salisbury, UK) were cultured as a monolayer at 37 °C in a humidified incubator with 5% carbon dioxide. AGS and RAW 264.7 cells were grown in DMEM, supplemented with 1% streptomycin/penicillin and 10% FBS (Gibco®). MRC-5 cells were grown in MEM, supplemented with 1% streptomycin/penicillin and 10% FBS.
# Cell viability was evaluated by the MTT reduction assay. Cells were cultured in 96-well plates (15,000 cells/well for AGS, 25,000 cells/well for RAW and 20,000 cells/well for MRC-5) and allowed to attach for 24 h. After incubation with compounds for 24 h, MTT (0.5 mg/mL final concentration) was added to each well and the plate was incubated for 75 min at 37 °C. Formazan crystals were dissolved by the addition of a DMSO: isopropanol mixture (3:1) and then quantified spectrophotometrically at 570 nm using a microplate reader (Multiskan Thermo Fisher Scientific Oy, Vantaa, Finland).
compound,measurement,setting,value
"COc1ccc2cc(C(C)C(=O)NC(Cc3ccc(O)cc3)C(=O)NC(=Cc3ccccc3)C(=O)O)ccc2c1 [Compound 1, Npx-L-Tyr-Z-ΔPhe-OH]",cytotoxic effect on RAW 264.7 viability,RAW 264.7 cells,did not show any statistically significant cytotoxic effects
same,26S proteasome activity versus control,[1]; 100 µM,8.1%
same,IC50,[1]; dose-response assay,18.6 µM
same,inhibition of LPS-induced production of •NO,[2]; preliminary study,modest ability to inhibit
same,IC50,"[2]; previously reported, read-out: IC50 (LPS-dependent •NO production)",79.3 µM
same,COX inhibition level (COX-1),COX-1,modest levels of COX inhibition
same,toxicity towards AGS cells,AGS cells,not toxic

# Source: article PMC7076388 (Pharmaceutics, 2020)
